One compound from US20180185312A1, “METHOD AND COMPOSITION FOR PREVENTING OR TREATING IMMUNE ALLERGIC AIRWAY DISEASE” (Development Center for Biotechnology, priority 2016, published 2018) can be followed below.

One experiment relates to IL-6. In words: Cytokines in nasal irrigation solution, allergic rhinitis animal model: IL-6. The class given is in vivo. To be noted: BALB/c mice, in comparison with the disease group, increasing amount of SAC. The method, then: (§1) 3. All animals were sacrificed at the end of the 4th week after being given the tested material, their nasal cavities were rinsed 3 times with 1 ml of physiological saline solution, then nasal irrigation solution was collected, centrifuged at 1000 rpm for 5 minutes at 4° C. to collect the supernatant solution, then store at −80° C. for preservation.

Experiment [1] is described as follows: Conversion of effective amount from mouse to human by conversion factor W. To be noted: converted from the mouse amount with conversion factor W 0.11. On the procedure: For example, when being administered into a mouse, an effective amount of SAC is at least approximately 25 mg/kg; more preferably, an effective amount of SAC is approximately from 25 mg/kg to 100 mg/kg. When being administered into a person, an effective amount of SAC is at least approximately 2.75 mg/kg; more preferably, an effective amount is approximately from 2.75 mg/kg to 11 mg/kg. The conversion of an effective amount from animal to animal can be easily calculated by those skilled in the art based on known knowledge. For example, when an effective amount per kg for animal A is known and an effective amount per kg for animal B is to be calculated, look up table 1 first to find the conversion factor (W), then calculate as follows: An effective amount for animal B (mg/kg)=W×an effective amount for animal A (mg/kg) For example, in one of the examples of this disclosure, an effective amount of SAC being administered into a mouse was 25 mg/kg, which needs to be converted into an effective amount for a human. Animal A is a mouse and animal B is a human, the crossing point which is the conversion factor W is 0.11, therefore an effective amount for a human is 0.11×25 mg/kg=2.75 mg/kg. [table]

The subject of another experiment is IL-9. In words: Cytokines in nasal irrigation solution, allergic rhinitis animal model: IL-9. The class given is in vivo. To be noted: BALB/c mice, in comparison with the disease group, increasing amount of SAC. On the procedure:
as §1

A further experiment has as its system allergic rhinitis. Description: Allergic rhinitis animal model: frequency of sneezing and nasal rubbing. The class given is in vivo, Mice (BALB/c). The source says: Drug Efficacy Evaluation for Allergic Rhinitis in Animals 1. Species: Mice. 2. Strain: BALB/c. 8. Number of animals: The animals were divided into 5 groups, 4 to 5 animals per group, a total of 24 animals. [table] 1. The frequency of sneezing and nasal rubbing of the mice was observed once per week.

Where [2] appears, read: BALB/c mice, SAC 25, 50, 100 mpk p.o. twice per day, in comparison to the disease group.

Take `C=CCSC[C@H](N)C(=O)O` [SAC, S-allyl-L-Cysteine]: the “level of IL-6 in nasal irrigation solution” value with IL-6 is listed as “decreased”. Also, the “effective amount for a human” value in experiment [1] was found to be 2.75 mg/kg. Moreover, in the experiment with IL-9, the “level of IL-9 in nasal irrigation solution” value is “decreased”. Besides, in the experiment with allergic rhinitis (setting [2]), the “frequency of nasal rubbing” value is given as “tended to decline” and the frequency of sneezing entry is listed as “tended to decline”. In addition, the “effective amount administered into a mouse” value with allergic rhinitis (mouse, in one of the examples) is 25 mg/kg.
